US8980934B2, “Kinase inhibitors and method of treating cancer with same” (University Health Network, priority 2012, dated 2015)

Legend:
Test in all cases: Cancer cell growth inhibition, Sulforhodamine B assay
Type in all cases: cell-based
[1] = tested on: MDA-MB-231 breast cancer cells; conditions: Homo sapiens, 120 h; MDA-MB-231, 5 days culture, SRB; read-out: Cancer Cell Line GI50 Range MDA-MB-231
Method: (§1) Breast cancer cells (MDA-MB-231), colon cancer cells (HCT116) and ovarian cancer cells (PA-1) were seeded (1000 to 4000 in 80 μl per well depending on the cell growth rate) into 96 well plates 24 hours before compound overlay. Compounds were prepared as 10 mM stock solutions in 100% DMSO which were diluted with DMEM (Dulbecco's Modified Eagle's Medium) cell growth Medium (Invitrogen, Burlington, ON, Canada) containing 10% FBS (Fetal Bovine Serum) to concentrations ranging from 50 nM to 250 μM. Aliquots (20 μl) from each concentration were overlaid to 80 μl of the pre-seeded cells in the 96 well plates to make final concentrations of 10 nM to 50 μM. The cells were cultured for 5 days before the Sulforhodamine B assay (SRB) was performed to determine the compound's cell growth inhibition activity.
(§2) Sulforhodamine B (purchased from Sigma, Oakville, ON, Canada) is a water-soluble dye that binds to the basic amino acids of the cellular proteins. Thus, colorimetric measurement of the bound dye provides an estimate of the total protein mass that is related to the cell number. the cells are fixed in situ by gently aspirating off the culture media and adding 50 μl ice cold 10% Trichloroacetic Acid (TCA) per well and incubate at 4° C. for 30-60 min. The plates are washed with H2O five times and allowed to air dry for 5 min. Addition of 50 μl 0.4% (w/v) SRB solution in 1% (v/v) acetic acid to each well and incubatation for 30 min at RT completes the staining reaction. Following staining, plates are washed four times with 1% acetic acid to remove unbound dye and then allowed to air dry for 5 min. The stain is solubilized with 100 μl of 10 mM Tris pH 10.5 per well. Absorbance is read at 570 nm.
(§3) The percentage (%) of relative growth inhibition was calculated by comparing to DMSO treated only cells (100%). GI50's were determined for compounds with cytotoxic activity. The GI50 was calculated using GraphPad PRISM software (GraphPad Software, Inc., San Diego, Calif., USA). GI50 (growth inhibition) is the compound concentration that causes 50% inhibition of cell growth.
(§4) In Table 1 below, GI50 value ranges for several compound examples against breast cancer cell lines (MDA-MB-231), colon cancer cell lines (HCT116) and ovarian cancer cell lines (PA-1) are given. […] The GI50 ranges are indicated as “A,” “B,” and “C,” for values less than or equal to 0.1 μM; those greater than 0.1 μM and less than or equal to 0.5 μM; and those greater than 0.5 μM, respectively.

[2] = tested on: PA-1 ovarian cancer cells; conditions: 120 h; PA-1, 5 days culture, SRB; read-out: Cancer Cell Line GI50 Range PA-1
Method: as §1, §2, §3, §4

[3] = tested on: HCT116 colon cancer cells; conditions: Homo sapiens, HCT-116, 120 h; HCT116, 5 days culture, SRB; read-out: Cancer Cell Line GI50 Range HCT116
Method: as §1, §2, §3, §4

GI50 [1]	GI50 [2]	GI50 [3]	SMILES
≤ 100 nM	≤ 100 nM	≤ 100 nM	CC(C)[C@H](NC(=O)c1ccc2[nH]nc(-c3ccc(N4CC5(CN(C)C5)C4)cc3)c2c1)c1ccccc1Cl [Example A28, (S)-N-(1-(2-Chlorophenyl)-2-methylpropyl)-3-(4-(6-methyl-2,6-diazaspiro[3.3]heptan-2-yl)phenyl)-1H-indazole-5-carboxamide]
≤ 100 nM	≤ 100 nM	≤ 100 nM	CC(C)C[C@H](NC(=O)c1ccc2[nH]nc(-c3ccc(N4CC5(COC5)C4)cc3)c2c1)c1ccccn1 [Example A27, (S)-3-(4-(2-oxa-6-azaspiro[3.3]heptan-6-yl)phenyl)-N-(3-methyl-1-(pyridin-2-yl)butyl)-1H-indazole-5-carboxamide]
≤ 100 nM	≤ 100 nM	≤ 100 nM	CN1CC2(C1)CN(c1ccc(-c3n[nH]c4ccc(C(=O)N[C@H](c5ccccc5)C5CC5)cc34)cc1)C2 [Example A29, (S)-N-(Cyclopropyl(phenyl)methyl)-3-(4-(6-methyl-2,6-diazaspiro[3.3]heptan-2-yl)phenyl)-1H-indazole-5-carboxamide]
≤ 100 nM	≤ 100 nM	≤ 100 nM	O=C(N[C@H](c1ccccn1)C1CCCC1)c1ccc2[nH]nc(-c3ccc(N4CC5(CC(O)C5)C4)cc3)c2c1 [Example A33, (S)-N-(Cyclopentyl(pyridin-2-yl)methyl)-3-(4-(6-hydroxy-2-azaspiro[3.3]heptan-2-yl)phenyl)-1H-indazole-5-carboxamide]
100 to 500 nM	100 to 500 nM	100 to 500 nM	CC(C)C[C@H](NC(=O)c1ccc2[nH]nc(-c3ccc(N4CCC45COC5)cc3)c2c1)c1ccccn1 [Example A35, (S)-3-(4-(6-Oxa-1-azaspiro[3.3]heptan-1-yl)phenyl)-N-(3-methyl-1-(pyridin-2-yl)butyl)-1H-indazole-5-carboxamide]

More lines, now with the values behind:

SMILES	GI50 [1]	GI50 [2]	GI50 [3]
O=C(N[C@@H](c1ncccn1)C1CCCC1)c1ccc2[nH]nc(-c3ccc(N4CC5(COC5)C4)cc3)c2c1 [Example A26, (R)-3-(4-(2-oxa-6-azaspiro[3.3]heptan-6-yl)phenyl)-N-(cyclopentyl(pyrimidin-2-yl)methyl)-1H-indazole-5-carboxamide]	≤ 100 nM	≤ 100 nM	≤ 100 nM
O=C(N[C@H](c1ccccc1)C1CC1)c1ccc2[nH]nc(-c3ccc(N4CC5(CCOCC5)C4)cc3)c2c1 [Example A17, (S)-3-(4-(7-Oxa-2-azaspiro[3.5]nonan-2-yl)phenyl)-N-(cyclopropyl(phenyl)methyl)-1H-indazole-5-carboxamide]	100 to 500 nM	100 to 500 nM	100 to 500 nM
O=C(NC(c1ccccn1)C1CC1)c1ccc2[nH]nc(-c3ccc(N4CCC5(COC5)C4)cc3)c2c1 (stereo not drawn) [Example A16, 3-(4-(2-Oxa-6-azaspiro[3.4]octan-6-yl)phenyl)-N-(cyclopropyl(pyridin-2-yl)methyl)-1H-indazole-5-carboxamide]	100 to 500 nM	100 to 500 nM	100 to 500 nM
O=C(N[C@H](c1ncccn1)C1CCCC1)c1ccc2[nH]nc(-c3ccc(N4CC5(COC5)C4)cc3)c2c1 [Example A25, (S)-3-(4-(2-oxa-6-azaspiro[3.3]heptan-6-yl)phenyl)-N-(cyclopentyl(pyrimidin-2-yl)methyl)-1H-indazole-5-carboxamide]	≤ 100 nM	≤ 100 nM	≤ 100 nM
O=C(NC(c1nccs1)C1CC1)c1ccc2[nH]nc(-c3ccc(N4CC5(COC5)C4)cc3)c2c1 (stereo not drawn) [Example A14, 3-(4-(2-Oxa-6-azaspiro[3.3]heptan-6-yl)phenyl)-N-(cyclopropyl(thiazol-2-yl)methyl)-1H-indazole-5-carboxamide]	≤ 100 nM	≤ 100 nM	≤ 100 nM
O=C(N[C@@H](c1ccccn1)C1CC1)c1ccc2[nH]nc(-c3ccc(N4CC5(CCO5)C4)cc3)c2c1 [Example A22, (R)-3-(4-(1-Oxa-6-azaspiro[3.3]heptan-6-yl)phenyl)-N-(cyclopropyl(pyridin-2-yl)methyl)-1H-indazole-5-carboxamide]	≤ 100 nM	≤ 100 nM	≤ 100 nM
